Data as given in US8916702B2 (priority 2012, dated 2014).

test system: HCV pseudoparticles (genotype 1a HCV E1 and E2 envelope, H77C isolate); assay: microbe, parasite or virus in culture; type: cell-based; details: Hepatitis C virus, Huh-7, 48 h, HCV pseudoparticles (genotype 1a, H77C) in Huh7 cells; average of duplicate; luciferase 2 days after infection

Row | SMILES | EC50 [nM]
1 | Cc1ccc(NC(=O)C(=O)NCC(C)(C)CNC(=O)c2ccc(Nc3nc(NC4(c5ccc(Cl)cc5)CC4)nc(OCC(F)(F)F)n3)cc2F)cc1 [Compound 3554] | 0.029
2 | CC(C)(CNC(=O)C(=O)Nc1ccc(C(=O)c2ccc(NC(=O)CCCCCNC(=O)CCCC[C@H]3SC[C@@H]4NC(=O)N[C@@H]43)cc2)cc1)CNC(=O)c1ccc(Nc2nc(NC3(c4ccc(Cl)cc4)CC3)nc(OCC(F)(F)F)n2)cc1 [Compound 3558] | 0.26
3 | CC(C)(CNC(=O)C(=O)Nc1ccc(OC(F)F)cc1)CNC(=O)c1ccc(Nc2nc(NC3(c4ccc(Cl)cc4)CC3)nc(OCC(F)(F)F)n2)cc1F [Compound 3562] | 0.018
4 | Cn1ccc(NC(=O)C(=O)NCC(C)(C)CNC(=O)c2ccc(Nc3nc(NC4(c5ccc(Cl)cc5)CC4)nc(OCC(F)(F)F)n3)cc2F)n1 [Compound 3567] | 0.035
5 | COC(=O)[C@@H](CCNC(=O)C(=O)Nc1cccc(OC(F)(F)F)c1)NC(=O)c1ccc(Nc2nc(NC3(c4ccc(Cl)cc4)CC3)nc(OCC(F)(F)F)n2)cc1 [Compound 3577] | 0.16
6 | COC(=O)[C@@H](CCNC(=O)C(=O)Nc1ccc(Oc2cccnc2)nc1)NC(=O)c1ccc(Nc2nc(NC3(c4ccc(Cl)cc4)CC3)nc(OCC(F)(F)F)n2)cc1 [Compound 3582] | 8.95
7 | COC(=O)/C(CCNC(=O)C(=O)Nc1ccc(C)nc1)=N\C(=O)c1ccc(Nc2nc(NC3(c4ccc(Cl)cc4)CC3)nc(OCC(F)(F)F)n2)cc1 [Compound 3590] | 0.16
8 | COC(=O)/C(CCNC(=O)C(=O)Nc1cncc(-c2nncn2C)c1)=N\C(=O)c1ccc(Nc2nc(NC3(c4ccc(Cl)cc4)CC3)nc(OCC(F)(F)F)n2)cc1 [Compound 3597] | 3.05

same assay, conditions: Hepatitis C virus, Huh-7, 48 h, read-out: Activity (EC50 class), HCV pseudoparticles, Huh7 cells, luciferase 2 days after infection; average of duplicates

Row | SMILES | EC50 [nM]
9 | COC(=O)[C@H](CCNC(=O)C(=O)Nc1cccc(-c2ccc(Cl)cc2)c1)NC(=O)c1ccc(Nc2nc(NC3(c4ccc(Cl)cc4)CC3)nc(OCC(F)(F)F)n2)cc1 [Compound 3599] | 0.01 to 10
10 | COC(=O)[C@H](CCNC(=O)C(=O)Nc1cccc(C#CC(C)(C)Cl)c1)NC(=O)c1ccc(Nc2nc(NC3(c4ccc(Cl)cc4)CC3)nc(OCC(F)(F)F)n2)cc1 [Compound 3600] | 0.01 to 10
11 | COC(=O)[C@H](CCNC(=O)C(=O)Nc1cccc(C2=NC(C)=CC2)c1)NC(=O)c1ccc(Nc2nc(NC3(c4ccc(Cl)cc4)CC3)nc(OCC(F)(F)F)n2)cc1 [Compound 3601] | 0.01 to 10

same assay, conditions: Hepatitis C virus, Huh-7, read-out: Activity (EC50 class), HCV pseudoparticles (genotype 1a, H77C) in Huh7 cells; EC50 expressed as class A/B

Row | SMILES | EC50 [nM]
12 | Cc1ccc(NC(=O)C(=O)NCC(C)(C)CNC(=O)c2ccc(Nc3nc(NC4(c5ccc(Cl)cc5)CC4)nc(OCC(F)(F)F)n3)cc2F)cc1 [Compound 3554] | 0.01 to 10
13 | CC(C)(CNC(=O)C(=O)Nc1ccc(F)cc1F)CNC(=O)c1ccc(Nc2nc(NC3(c4ccc(Cl)cc4)CC3)nc(OCC(F)(F)F)n2)cc1F [Compound 3555] | 0.01 to 10
14 | CC(C)(CNC(=O)C(=O)Nc1ccccc1-c1ccccc1)CNC(=O)c1ccc(Nc2nc(NC3(c4ccc(Cl)cc4)CC3)nc(OCC(F)(F)F)n2)cc1F [Compound 3556] | 0.01 to 10
15 | COc1ccc(NC(=O)C(=O)NCC(C)(C)CNC(=O)c2ccc(Nc3nc(NC4(c5ccc(Cl)cc5)CC4)nc(OCC(F)(F)F)n3)cc2F)cc1 [Compound 3557] | 0.01 to 10
16 | CC(C)(CNC(=O)C(=O)Nc1ccc(C(=O)c2ccc(NC(=O)CCCCCNC(=O)CCCC[C@H]3SC[C@@H]4NC(=O)N[C@@H]43)cc2)cc1)CNC(=O)c1ccc(Nc2nc(NC3(c4ccc(Cl)cc4)CC3)nc(OCC(F)(F)F)n2)cc1 [Compound 3558] | 0.01 to 10
17 | CC(C)(CNC(=O)C(=O)Nc1ccc(OC(F)(F)F)cc1)CNC(=O)c1ccc(Nc2nc(NC3(c4ccc(Cl)cc4)CC3)nc(OCC(F)(F)F)n2)cc1F [Compound 3559] | 0.01 to 10
18 | COc1ccc(NC(=O)C(=O)NCC(C)(C)CNC(=O)c2ccc(Nc3nc(NC4(c5ccc(Cl)cc5)CC4)nc(OCC(F)(F)F)n3)cc2F)c(OC)c1 [Compound 3560] | 0.01 to 10
19 | CC(C)(CNC(=O)C(=O)Nc1ccc(OC(F)F)cc1)CNC(=O)c1ccc(Nc2nc(NC3(c4ccc(Cl)cc4)CC3)nc(OCC(F)(F)F)n2)cc1F [Compound 3562] | 0.01 to 10
20 | COc1cccc(-c2ccc(NC(=O)C(=O)NCC(C)(C)CNC(=O)c3ccc(Nc4nc(NC5(c6ccc(Cl)cc6)CC5)nc(OCC(F)(F)F)n4)cc3F)cc2)c1 [Compound 3563] | 0.01 to 10
21 | CC(C)(CNC(=O)C(=O)Nc1ccc(/C=C/c2ccccc2)cc1)CNC(=O)c1ccc(Nc2nc(NC3(c4ccc(Cl)cc4)CC3)nc(OCC(F)(F)F)n2)cc1F [Compound 3564] | 0.01 to 10
22 | Cc1noc2ccc(NC(=O)C(=O)NCC(C)(C)CNC(=O)c3ccc(Nc4nc(NC5(c6ccc(Cl)cc6)CC5)nc(OCC(F)(F)F)n4)cc3F)cc12 [Compound 3565] | 0.01 to 10
23 | CC(C)(CNC(=O)C(=O)Nc1ccc2ncsc2c1)CNC(=O)c1ccc(Nc2nc(NC3(c4ccc(Cl)cc4)CC3)nc(OCC(F)(F)F)n2)cc1F [Compound 3566] | 0.01 to 10
24 | Cn1ccc(NC(=O)C(=O)NCC(C)(C)CNC(=O)c2ccc(Nc3nc(NC4(c5ccc(Cl)cc5)CC4)nc(OCC(F)(F)F)n3)cc2F)n1 [Compound 3567] | 0.01 to 10
25 | CC(C)(CNC(=O)C(=O)Nc1nc2ccccc2s1)CNC(=O)c1ccc(Nc2nc(NC3(c4ccc(Cl)cc4)CC3)nc(OCC(F)(F)F)n2)cc1F [Compound 3568] | 0.01 to 10
26 | COC(=O)[C@@H](CCNC(=O)C(=O)Nc1ccc(OCCC2C(=O)c3ccccc3C2=O)nc1)NC(=O)c1ccc(Nc2nc(NC3(c4ccc(Cl)cc4)CC3)nc(OCC(F)(F)F)n2)cc1 [Compound 3569] | 0.01 to 10
27 | COC(=O)[C@@H](CCNC(=O)C(=O)Nc1ccc(Cl)nc1)NC(=O)c1ccc(Nc2nc(NC3(c4ccc(Cl)cc4)CC3)nc(OCC(F)(F)F)n2)cc1 [Compound 3570] | 0.01 to 10
28 | COC(=O)[C@@H](CCNC(=O)C(=O)Nc1cccc(OCc2ccccc2)c1)NC(=O)c1ccc(Nc2nc(NC3(c4ccc(Cl)cc4)CC3)nc(OCC(F)(F)F)n2)cc1 [Compound 3571] | 0.01 to 10
29 | COC(=O)[C@@H](CCNC(=O)C(=O)Nc1cccc(C)c1)NC(=O)c1ccc(Nc2nc(NC3(c4ccc(Cl)cc4)CC3)nc(OCC(F)(F)F)n2)cc1 [Compound 3572] | 0.01 to 10
30 | CCc1cccc(NC(=O)C(=O)NCC[C@@H](NC(=O)c2ccc(Nc3nc(NC4(c5ccc(Cl)cc5)CC4)nc(OCC(F)(F)F)n3)cc2)C(=O)OC)c1 [Compound 3573] | 0.01 to 10
31 | C=Cc1cccc(NC(=O)C(=O)NCC[C@@H](NC(=O)c2ccc(Nc3nc(NC4(c5ccc(Cl)cc5)CC4)nc(OCC(F)(F)F)n3)cc2)C(=O)OC)c1 [Compound 3574] | 0.01 to 10
32 | COC(=O)[C@@H](CCNC(=O)C(=O)Nc1cccc(C(=O)Nc2ccccc2)c1)NC(=O)c1ccc(Nc2nc(NC3(c4ccc(Cl)cc4)CC3)nc(OCC(F)(F)F)n2)cc1 [Compound 3575] | 0.01 to 10
33 | COC(=O)[C@@H](CCNC(=O)C(=O)Nc1cccc(C(=O)c2ccccc2)c1)NC(=O)c1ccc(Nc2nc(NC3(c4ccc(Cl)cc4)CC3)nc(OCC(F)(F)F)n2)cc1 [Compound 3576] | 0.01 to 10

Row | SMILES | EC50 [nM]
34 | COC(=O)[C@@H](CCNC(=O)C(=O)Nc1cccc(OC(F)(F)F)c1)NC(=O)c1ccc(Nc2nc(NC3(c4ccc(Cl)cc4)CC3)nc(OCC(F)(F)F)n2)cc1 [Compound 3577] | 0.01 to 10
35 | COC(=O)[C@@H](CCNC(=O)C(=O)Nc1cccc(Oc2ccccc2)c1)NC(=O)c1ccc(Nc2nc(NC3(c4ccc(Cl)cc4)CC3)nc(OCC(F)(F)F)n2)cc1 [Compound 3578] | 0.01 to 10
36 | COC(=O)[C@@H](CCNC(=O)C(=O)Nc1cccc(-c2cnco2)c1)NC(=O)c1ccc(Nc2nc(NC3(c4ccc(Cl)cc4)CC3)nc(OCC(F)(F)F)n2)cc1 [Compound 3579] | 0.01 to 10
37 | COC(=O)[C@@H](CCNC(=O)C(=O)Nc1ccc(Oc2ccc(Cl)cc2Cl)nc1)NC(=O)c1ccc(Nc2nc(NC3(c4ccc(Cl)cc4)CC3)nc(OCC(F)(F)F)n2)cc1 [Compound 3580] | 10 to 1000
38 | COC(=O)[C@@H](CCNC(=O)C(=O)Nc1ccc(Oc2ccc(C(C)(C)C)cc2)nc1)NC(=O)c1ccc(Nc2nc(NC3(c4ccc(Cl)cc4)CC3)nc(OCC(F)(F)F)n2)cc1 [Compound 3581] | 0.01 to 10
39 | COC(=O)[C@@H](CCNC(=O)C(=O)Nc1ccc(Oc2cccnc2)nc1)NC(=O)c1ccc(Nc2nc(NC3(c4ccc(Cl)cc4)CC3)nc(OCC(F)(F)F)n2)cc1 [Compound 3582] | 0.01 to 10
40 | COC(=O)[C@@H](CCNC(=O)C(=O)Nc1cccc(-c2ccnc(C)n2)c1)NC(=O)c1ccc(Nc2nc(NC3(c4ccc(Cl)cc4)CC3)nc(OCC(F)(F)F)n2)cc1 [Compound 3583] | 0.01 to 10
41 | COC(=O)/C(CCNC(=O)C(=O)NC1CCCC(S(=O)(=O)c2ccccc2)C1)=N\C(=O)c1ccc(Nc2nc(NC3(c4ccc(Cl)cc4)CC3)nc(OCC(F)(F)F)n2)cc1 (stereo not shown) [Compound 3584] | 10 to 1000
42 | COC(=O)/C(CCNC(=O)C(=O)Nc1ccc(N2CCOCC2)nc1)=N\C(=O)c1ccc(Nc2nc(NC3(c4ccc(Cl)cc4)CC3)nc(OCC(F)(F)F)n2)cc1 [Compound 3585] | 0.01 to 10
43 | COC(=O)/C(CCNC(=O)C(=O)Nc1cccc(C(C)(C)C)c1)=N\C(=O)c1ccc(Nc2nc(NC3(c4ccc(Cl)cc4)CC3)nc(OCC(F)(F)F)n2)cc1 [Compound 3586] | 0.01 to 10
44 | COC(=O)/C(CCNC(=O)C(=O)Nc1ccc(N)nc1)=N\C(=O)c1ccc(Nc2nc(NC3(c4ccc(Cl)cc4)CC3)nc(OCC(F)(F)F)n2)cc1 [Compound 3587] | 0.01 to 10
45 | COC(=O)/C(CCNC(=O)C(=O)Nc1cccc(S(C)(=O)=O)c1)=N\C(=O)c1ccc(Nc2nc(NC3(c4ccc(Cl)cc4)CC3)nc(OCC(F)(F)F)n2)cc1 [Compound 3588] | 0.01 to 10
46 | COC(=O)/C(CCNC(=O)C(=O)Nc1cccc(S(=O)(=O)C(F)(F)F)c1)=N\C(=O)c1ccc(Nc2nc(NC3(c4ccc(Cl)cc4)CC3)nc(OCC(F)(F)F)n2)cc1 [Compound 3589] | 0.01 to 10
47 | COC(=O)/C(CCNC(=O)C(=O)Nc1ccc(C)nc1)=N\C(=O)c1ccc(Nc2nc(NC3(c4ccc(Cl)cc4)CC3)nc(OCC(F)(F)F)n2)cc1 [Compound 3590] | 0.01 to 10
48 | COC(=O)/C(CCNC(=O)C(=O)Nc1cccc(-c2ccncc2)c1)=N\C(=O)c1ccc(Nc2nc(NC3(c4ccc(Cl)cc4)CC3)nc(OCC(F)(F)F)n2)cc1 [Compound 3591] | 0.01 to 10
49 | COC(=O)/C(CCNC(=O)C(=O)Nc1cccc(Cc2ccccc2)c1)=N\C(=O)c1ccc(Nc2nc(NC3(c4ccc(Cl)cc4)CC3)nc(OCC(F)(F)F)n2)cc1 [Compound 3592] | 10 to 1000
50 | COC(=O)/C(CCNC(=O)C(=O)Nc1ccc(Oc2ccccc2)nc1)=N\C(=O)c1ccc(Nc2nc(NC3(c4ccc(Cl)cc4)CC3)nc(OCC(F)(F)F)n2)cc1 [Compound 3593] | 0.01 to 10
51 | COC(=O)/C(CCNC(=O)C(=O)Nc1ccc(C(F)(F)F)nc1)=N\C(=O)c1ccc(Nc2nc(NC3(c4ccc(Cl)cc4)CC3)nc(OCC(F)(F)F)n2)cc1 [Compound 3594] | 0.01 to 10
52 | COC(=O)/C(CCNC(=O)C(=O)Nc1cccc(S(=O)(=O)C2CCCCC2)c1)=N\C(=O)c1ccc(Nc2nc(NC3(c4ccc(Cl)cc4)CC3)nc(OCC(F)(F)F)n2)cc1 [Compound 3595] | 0.01 to 10
53 | COC(=O)/C(CCNC(=O)C(=O)Nc1cccc(-c2csc(C)n2)c1)=N\C(=O)c1ccc(Nc2nc(NC3(c4ccc(Cl)cc4)CC3)nc(OCC(F)(F)F)n2)cc1 [Compound 3596] | 0.01 to 10
54 | COC(=O)/C(CCNC(=O)C(=O)Nc1cncc(-c2nncn2C)c1)=N\C(=O)c1ccc(Nc2nc(NC3(c4ccc(Cl)cc4)CC3)nc(OCC(F)(F)F)n2)cc1 [Compound 3597] | 0.01 to 10
55 | COC(=O)/C(CCNC(=O)C(=O)Nc1ccc(OCCN2CCCCC2)nc1)=N\C(=O)c1ccc(Nc2nc(NC3(c4ccc(Cl)cc4)CC3)nc(OCC(F)(F)F)n2)cc1 [Compound 3598] | 0.01 to 10
